Values quoted from earlier work, collected in US20230310417A1, “INJECTABLE ARIPIPRAZOLE FORMULATION” (CIPLA LIMITED, priority 2020, published 2023).

Settings: room temperature

aqueous solubility: < 1 µg/mL
Compound: O=C1CCc2ccc(OCCCCN3CCN(c4cccc(Cl)c4Cl)CC3)cc2N1 [Aripiprazole]
